These results are taken from patent US20080312435A1, “Imine Compound” (TAISHO PHARMACEUTICAL CO., LTD., priority 2004, published 2008).

Data set [1] addresses T1, human CB2 receptor (Homo sapiens, UniProt P34972).
T1 construct: expressed in transfected cells
Kind of data set: Human CB2 receptor binding inhibition test ([3H]CP-55,940, CHO membrane fractions). The following applies: [3H]CP-55,940, membrane fractions of CHO cells stably expressing human CB2 receptor, 25° C., 2 hours; read-out: CB2 IC50 (Inhibition of binding to human CB2 receptor). From the text: Human CB2 Receptor Binding Inhibition Test
First, cDNA sequence (Munro et al., Nature, 1993, 365, 61-65) encoding a human CB2 receptor was inserted in the forward direction in an animal-cell expression vector, pTARGET Vector (manufactured by Promega) at a region downstream of a CMV promoter. Host cells CHO-DHFR(−) were transfected with the obtained expression vector with the aid of Lipofectamine (manufactured by Invitrogen) to obtain cells capable of stably expressing the CB2 receptor.
After the filtrate was washed with an assay buffer containing 0.1% bovine serum albumin, the radioactivity on the glass filter was measured by a liquid scintillation counter. Nonspecific binding was measured in the presence of 2.0 μM CP-55,940 (manufactured by Tocris). 50% inhibitory concentration (IC50 value) of the test compound for the specific binding was obtained.

Molecules are shown by their SMILES.

T1 sequence (P34972 whole entry): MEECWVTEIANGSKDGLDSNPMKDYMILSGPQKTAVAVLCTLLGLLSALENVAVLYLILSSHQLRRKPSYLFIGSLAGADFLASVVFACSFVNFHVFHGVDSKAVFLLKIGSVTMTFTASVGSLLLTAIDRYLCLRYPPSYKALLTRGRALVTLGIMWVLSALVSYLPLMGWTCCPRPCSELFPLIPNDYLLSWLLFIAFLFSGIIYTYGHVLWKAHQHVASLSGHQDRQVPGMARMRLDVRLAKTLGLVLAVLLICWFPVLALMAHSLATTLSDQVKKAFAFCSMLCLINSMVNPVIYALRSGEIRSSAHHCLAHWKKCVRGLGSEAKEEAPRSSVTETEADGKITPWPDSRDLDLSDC

Regarding `COc1ccc(F)cc1C(=O)/N=c1\sc(C)c(C)n1CC1CC1` [compound 96], the melting point (usually the temperature of the solid-liquid transition) lay within 107 to 109 °C. The IC50 (in general, the midpoint of a concentration-inhibition curve) in data set [1] worked out at 7.7 nM.

`Cc1c(C(C)(C)C)s/c(=N/C(=O)c2cccnc2F)n1CC1CC1` [compound 300] gave a melting point of 83 to 84 °C. Moreover, the half-maximal inhibitory concentration (IC50) in data set [1] was determined as 15 nM.

`Cc1c(C(C)(C)C)s/c(=N\C(=O)c2cccc(N(C)C)c2)n1CC1CC1` [compound 201]: the melting point lay in the range of 128 to 130 °C. Besides, the IC50 in data set [1] amounted to 19.1 nM.

Consider `Cc1ccc(F)cc1C(=O)/N=c1\sc(C(C)(C)C)c(C)n1C` [compound 138], for which the melting point was 145 to 146 °C. Further, the half-inhibitory concentration (IC50) in data set [1] was determined as 12 nM.

For `CCn1c(C)c(C(C)(C)C)s/c1=N\C(=O)c1cc(Cl)ccc1Cl` [compound 158], the melting point was 127 to 128 °C. The IC50 in data set [1] came to 7.1 nM.

The compound `Cc1c(C(C)(C)C)s/c(=N\C(=O)c2cc(F)ccc2F)n1CC1CC1` [compound 221] came in with a melting point of 170 to 172 °C. Also, the IC50 in data set [1] stood at 15.6 nM.

Take `Cc1c(C(C)(C)C)s/c(=N\C(=O)c2ccccc2Br)n1C` [compound 120]: the melting point fell in the range of 182 to 184 °C. Also, the IC50 in data set [1] was 7.4 nM.

Compound `Cc1c(C(C)(C)C)s/c(=N\C(=O)c2cccc(Cl)c2F)n1C` [compound 129] yielded a melting point of 203 to 205 °C. The IC50 in data set [1] was 7.1 nM.

Compound `CCn1c(C)c(C(C)(C)C)s/c1=N\C(=O)c1cc(F)ccc1C(F)(F)F` [compound 164] returned a melting point of 103 to 104 °C. Also, the IC50 in data set [1] was 4.1 nM.

For the compound `Cc1ccc(F)c(C(=O)/N=c2\sc(C(C)(C)C)c(C)n2CC2CC2)c1` [compound 239], the melting point fell in the range of 117 to 119 °C. In data set [1], the IC50 came out at 2.4 nM.

The compound `COc1cc(Cl)ccc1C(=O)/N=c1\sc(C(C)(C)C)c(C)n1C` [compound 147] returned a melting point of 117 to 119 °C. For the same compound, in data set [1], the IC50 was 9.6 nM.

In turn, `Cc1c(C(C)(C)C)s/c(=N\C(=O)c2cccc([N+](=O)[O-])c2)n1CC1CC1` [compound 209] came in with a melting point of 87 to 89 °C. For the same compound, in data set [1], the IC50 came to 1.4 nM.

In turn, `Cc1c(C(C)(C)C)s/c(=N\C(=O)c2nccnc2Cl)n1CC1CC1` [compound 305] had a melting point of 115 to 116 °C. The IC50 in data set [1] was determined as 3.7 nM.

For `Cc1c(C(C)(C)C)s/c(=N\C(=O)c2cc(F)ccc2Cl)n1C` [compound 130], the melting point lay within 125 to 126 °C. In data set [1], the IC50 amounted to 8.5 nM.

For `Cc1c(C(C)(C)C)s/c(=N\C(=O)c2cnnc3ccccc23)n1CC1CC1` [compound 325], the melting point lay within 140 to 141 °C. Further, the IC50 in data set [1] was 13 nM.

Regarding `COCCn1c(C)c(C(C)(C)C)s/c1=N\C(=O)c1cc(F)ccc1C` [compound 351], the melting point was in the range of 106 to 107 °C. For the same compound, the IC50 in data set [1] was 2.2 nM.

The compound `Cc1cc/c(=N\C(=O)c2cccc(C(F)(F)F)c2F)n(CC2CC2)c1` [compound 24] showed a melting point of 118 to 120 °C. For the same compound, the IC50 in data set [1] was 7.5 nM.

`Cc1s/c(=N\C(=O)c2ccccc2C(F)(F)F)n(CC2CC2)c1C` [compound 74] showed a melting point of 125 to 127 °C. In data set [1], the IC50 was 4.6 nM.

Compound `CC(C)(C)c1c/c(=N\C(=O)c2cc(C(F)(F)F)ccc2F)n(CC2CC2)s1` [compound 58] registered a melting point of 63 to 65 °C. In addition, the IC50 in data set [1] was 1.8 nM.

For the compound `Cc1c(C(C)(C)C)s/c(=N\C(=O)c2cccc(OC(F)(F)F)c2)n1CC1CC1` [compound 196], the melting point fell in the range of 106 to 108 °C. Moreover, in data set [1], the IC50 is 7.6 nM.

`Cc1s/c(=N\C(=O)c2cc(F)ccc2Cl)n(CC2CC2)c1C` [compound 80] returned a melting point of 139 to 140 °C. For the same compound, the 50% inhibitory concentration (IC50) in data set [1] is 17.9 nM.

Regarding `CCOc1ncccc1C(=O)/N=c1\sc(C(C)(C)C)c(C)n1CC1CC1` [compound 310], the melting point was in the range of 102 to 104 °C. Moreover, the IC50 in data set [1] came out at 17.3 nM.

On to `COCCn1c(C)c(C(C)(C)C)s/c1=N\C(=O)c1cc(Br)ccc1F` [compound 348], for which the melting point was in the range of 95 to 97 °C. Moreover, the IC50 in data set [1] worked out at 3.8 nM.

Turning to `Cc1c(C(C)(C)C)s/c(=N\C(=O)c2ccccc2Cl)n1C` [compound 119], the melting point was in the range of 119 to 121 °C. Besides, the IC50 in data set [1] stood at 18.5 nM.

With `CCn1c(C)c(C(C)(C)C)s/c1=N\C(=O)c1ccc(F)cc1Br` [compound 156], the melting point fell in the range of 99 to 100 °C. Further, the IC50 in data set [1] is 11.4 nM.

Regarding `Cc1c(C(C)(C)C)s/c(=N\C(=O)c2cc(C(F)(F)F)ccc2Cl)n1CC1CC1` [compound 257], the melting point was in the range of 100 to 102 °C. Besides, the IC50 in data set [1] was 1.3 nM.

`Cc1ccc(F)cc1C(=O)/N=c1\sc(C(C)(C)C)c(C)n1CC1CC1` [compound 241]: the melting point lay in the range of 91 to 93 °C. In data set [1], the IC50 was found to be 1 nM.

`Cc1ccc(C(=O)/N=c2\sc(C(C)(C)C)c(C)n2CC2CC2)c(C)c1` [compound 216] came in with a melting point of 100 to 101 °C. For the same compound, the IC50 in data set [1] worked out at 1.7 nM.

`CCn1c(C)c(C(C)(C)C)s/c1=N\C(=O)c1cc(F)c(Cl)cc1Cl` [compound 160] returned a melting point of 112 to 114 °C. In addition, the IC50 in data set [1] worked out at 8.5 nM.

Consider `Cc1cs/c(=N\C(=O)c2cccc(C(F)(F)F)c2F)n1CC1CC1` [compound 63], for which the melting point lay within 109 to 111 °C. Further, the IC50 in data set [1] is 4.9 nM.

Compound `Cc1c(C(C)(C)C)s/c(=N\C(=O)c2cc(Cl)ccc2Cl)n1C` [compound 133] showed a melting point of 171 to 173 °C. Besides, the IC50 in data set [1] stood at 7.3 nM.

Turning to `COCCn1c(C)c(C(C)(C)C)s/c1=N\C(=O)c1cccc(I)c1` [compound 346], the melting point fell in the range of 119 to 121 °C. Besides, the IC50 in data set [1] amounted to 13.5 nM.

For `Cc1c(C(C)(C)C)s/c(=N\C(=O)c2ccc(Cl)cc2F)n1CC1CC1` [compound 226], the melting point lay within 108 to 110 °C. In addition, in data set [1], the IC50 was 7.7 nM.

The compound `Cc1nc(F)ccc1C(=O)/N=c1\sc(C(C)(C)C)c(C)n1CC1CC1` [compound 316] returned a melting point of 67 to 69 °C. The IC50 in data set [1] turned out to be 5.3 nM.

As for `COc1ccc(Cl)cc1C(=O)/N=c1\sc(C(C)(C)C)c(C)n1C` [compound 146], the melting point was in the range of 177 to 179 °C. The IC50 in data set [1] turned out to be 6.6 nM.

As to `Cc1c(C(C)(C)C)s/c(=N\C(=O)c2cccc(I)c2)n1CC1CC1` [compound 192], the melting point fell in the range of 114 to 115 °C. In data set [1], the IC50 was 13.2 nM.

In turn, `Cc1s/c(=N\C(=O)c2cccc(Cl)c2F)n(CC2CC2)c1C` [compound 79] had a melting point of 109 to 111 °C. The IC50 in data set [1] was found to be 8.4 nM.

`Cc1c(C(C)(C)C)s/c(=N/C(=O)c2cnccc2C(F)(F)F)n1CC1CC1` [compound 298]: the melting point lay in the range of 74 to 76 °C. In data set [1], the IC50 came to 1.5 nM.

For the compound `Cc1c(C(C)(C)C)s/c(=N\C(=O)c2cc(F)ccc2C(F)(F)F)n1CC1CC1` [compound 254], the melting point is 110 to 112 °C. Further, the IC50 in data set [1] turned out to be 1.4 nM.

In turn, `Cc1cccc(Cl)c1C(=O)/N=c1\sc(C(C)(C)C)c(C)n1CC1CC1` [compound 244] came in with a melting point of 159 to 160 °C. Besides, the IC50 in data set [1] came out at 3.2 nM.
